Reference: patent publication US7423020B2, “Treatment of mood disorders by administration of SMR1” (Institut Pasteur, priority 2001, dated 2008)

Assays:
[1] = tested on: male Wistar/AF EOPS rats; test: Behavioral despair test (forced swimming); format: in vivo, rat; conditions: first 5 minutes, n = 10
[2] = tested on: male Wistar/AF EOPS rats; test: Behavioral despair test (forced swimming); format: in vivo, rat
Method: Forty male Wistar/AF EOPS rats (Iffa-Credo Breeding Centre, 69-St-Germain sur l'Arbresle, France), weighing 300 to 320 g, were used. On arrival, the rats were labelled and distributed randomly in pairs into type F polycarbonate cages (48×27×20 cm, U.A.R., 91-Epinay-Sur-Orge, France). The animals were stabled in an air-conditioned animal house, at a temperature of 22-24° C. The rats were given food (M25 croquettes, Ets Pietrement, 77-Provins, France) and drink ad libitum and were subjected to a 12-hour light-darkness cycle.
After one week of familiarization with the laboratory conditions, the rats were weighed and distributed randomly into 3 treatment groups (n=12). The rats of the different groups will all be handled in the same way and under the same conditions.
The behavioral despair test takes place over two sessions: • a 15-minute test session; • a 5-minute retest session, performed 24 hours later.
During the test session, the rat was subjected to forced swimming in a Plexiglas cylinder (20 cm in diameter and 50 cm in height, containing 25 cm of water at 25° C.) and its behavior was recorded over 15 minutes. At the end of the test, the rat was removed from the water, dried gently, treated and then returned to its dwelling cage.
During the retest, 24 hours later, the rat was again placed in the water and its behavior was recorded over 5 minutes.
The recorded variables are the period of immobility during the first 5 minutes of both the test and the retest.
The peptide FG-005 (SMR1-QHNPR) (SEQ ID NO: 1) was suspended at a rate of 500 μg per 5 ml of 0.01N acetic acid, and then diluted with PBS to be administered at doses of 50 and 100 μg/kg via the i.v. route into the dorsal caudal vein of the rat, immediately after the test and 300 and 5 minutes before the retest the following day.
A bilateral probability paired t test was used to compare the two periods of immobility of the test with those of the retest in each of the groups. The results are expressed as an average ±standard error of mean (SEM)(FIG. 4). The statistical and graphical processing was performed using Statview5 and DeltaGraph® Pro 3.5 software.

[3] = biological target: T1, NEP (Rattus norvegicus, UniProt P07861); test: 3H-Substance P hydrolysis by rat spinal cord slices; format: biochemical; conditions: 25° C., over 30 min incubation, read-out: inhibition of Substance P degradation
T1 construct: incubations of membrane and fresh tissue slice preparations from nervous tissues; from tissue; host or cells: rat spinal cord (dorsal zone), fresh slices or 100 000 x g membrane fraction
T1 sequence (P07861 1-750): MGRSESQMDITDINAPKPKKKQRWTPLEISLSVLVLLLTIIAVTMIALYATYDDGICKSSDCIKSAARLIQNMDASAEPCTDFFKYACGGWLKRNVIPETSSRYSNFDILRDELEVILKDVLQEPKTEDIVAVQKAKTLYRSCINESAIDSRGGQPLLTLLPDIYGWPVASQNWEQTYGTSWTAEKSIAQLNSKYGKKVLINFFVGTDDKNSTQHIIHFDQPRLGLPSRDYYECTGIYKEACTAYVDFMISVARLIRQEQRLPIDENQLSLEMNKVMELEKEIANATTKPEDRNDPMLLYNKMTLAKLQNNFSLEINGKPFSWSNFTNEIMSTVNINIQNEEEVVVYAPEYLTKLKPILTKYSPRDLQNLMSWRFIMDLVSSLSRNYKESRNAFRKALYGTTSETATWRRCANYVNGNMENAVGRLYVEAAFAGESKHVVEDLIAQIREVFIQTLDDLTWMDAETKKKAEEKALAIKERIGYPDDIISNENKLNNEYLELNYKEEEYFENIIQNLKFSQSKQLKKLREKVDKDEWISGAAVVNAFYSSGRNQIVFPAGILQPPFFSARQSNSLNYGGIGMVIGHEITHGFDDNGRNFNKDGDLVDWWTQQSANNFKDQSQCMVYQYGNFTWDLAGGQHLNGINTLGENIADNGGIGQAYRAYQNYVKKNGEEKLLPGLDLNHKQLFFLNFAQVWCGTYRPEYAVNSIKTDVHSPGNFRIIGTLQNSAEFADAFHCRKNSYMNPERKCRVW
Method: (§1) For the experiments of analysis of the NEP peptidase activity, an ex vivo model using incubations of membrane and fresh tissue slice preparations from nervous tissues that are known to be appropriate for exploring NEP peptidase activity: i.e. the dorsal zone of rat spinal cord, was first developed. […] (NEN, 12.5-25 nM) were used.
(§2) The objective was to measure the NEP-specific endoproteolysis of these substrates.
The C-18 Sep-Pak cartridges (Waters) were used to analyze the hydrolysis of the radiolabeled peptides: they separate compounds according to their differences in polarity. This solid-phase extraction procedure allows isolating the substrate from its metabolites, since the hydrophobic character of the peptide metabolites is reduced or even lost compared to the intact peptide substrate.
The radioactivity of eluted and isolated compounds is determined by liquid scintillation spectrometry.

[4] = biological target: T1, NEP; test: Met-enkephalin degradation by rat spinal cord slices, RIA assay; format: biochemical; conditions: 10 μM; fresh spinal cord slices; 20 min at 25° C.; 10 μM Met-enkephalin
Method: as §1, §2

[5] = biological target: T1, NEP; test: Met-enkephalin hydrolysis by rat spinal cord slices and membrane preparations, RP-HPLC analysis; format: biochemical; conditions: for inhibition of enkephalinase activity over the time of incubation: 37° C., from 10 to 30 min, 10 μM Phosphoramidon, 1 μM Thiorphan
Method: The organs are rapidly removed, dissected on ice, freed of nerve fibers and of adipose tissues and then washed in cold oxygenated glucose-and bicarbonate-containing Krebs Ringer (KRBG) solution, whose composition is the following: 120 mM NaCl-5 mM KCl-1.2 mM KH2PO4-27.5 mM NaHCO3-2.6 mM CaCl2-0.67 mM MgSO4-5.9 mM glucose. The slices of tissues are prepared either manually with the aid of a scalpel (1-2 mm thick), or mechanically with the aid of a “Tissue Chopper” (1 mm thick). Slices are then dispersed into reaction tubes where they are subjected to three successive washes in ice-cold oxygenated KRBG. […] The organs dissected out and washed in ice-cold KRBG are homogenized at 4° C. in 10 volumes (vol./wt.) of 50 mM Tris/HCl buffered at pH 7.2, using a Teflon-glass homogenizer (3×5 sec.). A first centrifugation of 5 min. at 1000×g and 4° C. makes it possible to remove the tissular debris and the nuclei in the pellet. A second centrifugation of the supernatant at 100 000×g and 5° C. concentrates the membrane fraction into the pellet, which will be superficially washed three times with cold Tris/HCl buffer and resuspended in fresh buffer using a Kontes homogenizer, aliquoted and stored at -80° C. while waiting to be used as enzyme source, at least until three months. For the experiments of analysis of the NEP peptidase activity, an ex vivo model using incubations of membrane and fresh tissue slice preparations from nervous tissues that are known to be appropriate for exploring NEP peptidase activity: i.e. the dorsal zone of rat spinal cord, was first developed. The metabolism rate of the NEP-sensitive peptides was measured using the both NEP substrates involved in the signaling of the nociceptive response: the neuropeptides Met-enkephalin and Substance P. […] (NEN, 12.5-25 nM) were used. The objective was to measure the NEP-specific endoproteolysis of these substrates. […] Furthermore, for studying the functional role of […] NO: 1), the reaction was carried out in the presence of the SMR1-peptide alone or combined with specific inhibitors of membrane peptidases which could inactivate the […] NO: 1) peptide by cleaving its C-terminal end: an inhibitor of carboxypeptidase […], 10 μM, Sigma) and an inhibitor of dipeptidylpeptidase IV (DPPIV inhibitor, 10 μM, Roche). […] Samples are kept at -30° C. until the measurement of their intact substrate and its metabolites content. The membrane preparations are preincubated in 50 mM Tris/HCl buffered at pH 7.2 and containing 10 μM Bestatin, at 25, 30 or 37° C. in constantly shaken water, in the presence or in the absence of NEP inhibitor. […] Samples are kept at -30° C. until the measurement of their intact substrate and its metabolites content. HPLC is a highly resolutive procedure that allows one to isolate, and detect by coupled spectrophotometer analysis, the non-radioactive peptides whose concentration is at least 1 to 10 μM. The C-18 RP-HPLC is based on the same principle as the C-18 Sep-Pak cartridge. The chromatographic analyses were used to study the hydrolysis of Met-Enkephalin, that were done on a C-18 LUNA analytical column (150×4.6 mm inner diameter, AIT) packed with 5 μm-diameter beads. […] Their identification and relative quantification (peak height) are checked by continuously monitoring the UV absorbance at 254 nm of column outflow. In first series of experiment, the slices and the membrane preparations of spinal cord tissues were incubated at 30° C. in a 1 ml final volume of KRBG, and at 37° C. in a 0.25 ml final volume of Tris/HCl 50 mM, pH 7.2, respectively.

SMILES | Immobility period, Retest ([1]; 0.5 mg/kg i.p., 1440, 300, 30 min before the retest) | Immobility period, Test ([1]; 8-OH-DPAT group, 0.5 mg/kg i.p., test session before any treatment) | change of period of immobility, retest compared with test ([2]; 8-OH-DPAT treated rats) | overall effect in the behavioral despair test ([2]; FG-005 50 and 100 μg/kg i.v., 8-OH-DPAT as reference substance) | inhibition at 10 µM [3] [%] | protection of Met-enkephalin from degradation (RIA) [4] [%] | inhibition at 10 µM ([5]; 10 μM, membrane preparations and fresh tissue slices, 10 min incubation at 37° C., read-out: inhibition of Met-enkephalin hydrolysis (enkephalinase activity)) [%] | inhibition of Met-enkephalin degradation (RP-HPLC) ([5]; 10 μM, spinal cord slices, 20 min at 25° C., Met-enkephalin 10 μM) | inhibition of enkephalinase activity over the time of incubation [5] | inhibition at 1 µM ([5]; 1 μM, membrane preparations and fresh tissue slices, 10 min incubation at 37° C., read-out: inhibition of Met-enkephalin hydrolysis (enkephalinase activity)) [%] | inhibition at 10 µM ([5]; 10 μM, spinal cord slices, 20 min at 25° C., Met-enkephalin 10 μM, read-out: inhibition of Met-enkephalin degradation (RP-HPLC)) [%]
CCCN(CCC)C1CCc2cccc(O)c2C1 (centres unmarked) [8-OH-DPAT, reference compound] | 31.60 ± 11.51 | 109.20 ± 11.43 | significantly reduce their period of immobility | significant anti-resignation effect |  |  |  |  |  |  | 
CC(C)C[C@H](NP(=O)(O)O[C@@H]1O[C@@H](C)[C@H](O)[C@@H](O)[C@H]1O)C(=O)N[C@@H](Cc1c[nH]c2ccccc12)C(=O)O [Phosphoramidon] |  |  |  |  | 60 to 65 | 96 | 80 to 90 | complete inhibition | almost complete inhibition |  | 
O=C(O)CNC(=O)C(CS)Cc1ccccc1 (centres unmarked) [Thiorphan] |  |  |  |  | 60 to 65 | 100 |  |  | almost complete inhibition | 80 to 90 | 80
